In patent US12059400B2, “Medical compound” (VERA SALUS RICERCA S.R.L., priority 2017, dated 2024):
pIC50: −log10 of the molar value.

Tests used:
Assay in all cases: Cell proliferation, crystal violet method
Format in all cases: cell-based
[1] = tested on: human colon carcinoma cells (HCT116); conditions: for pIC50: Homo sapiens, HCT-116, crystal violet, spectrophotometer, read-out: IC50 anti-proliferative effect, CRC (HCT116)
Procedure: (§1) The compound according to the invention, and in particular the synthetic quercetin derivatives described and illustrated herein were investigated in vitro by using human tumour cells and assessing their impact on the tumour proliferative capacity, with regard to the tumours described above. In particular, the following human tumour cell lines were assessed experimentally: 1) HCT116, colon adenocarcinoma cells; 2) H1299, lung adenocarcinoma cells; 3) A375, melanoma cells, and 4) A431, squamous skin cell carcinoma; 5) 786-0, renal carcinoma cells; 6) PC3, prostate carcinoma cells; 7) BT549, mammary carcinoma cells; 8) CAL27, tongue carcinoma cells (belonging to the head-and-neck carcinomas); 9) HepG2, hepatocellular carcinoma cells; 10) PANC-1, pancreas carcinoma cells; 11) T24, bladder carcinoma cells; 12) OVCAR-3, ovarian carcinoma cells. In addition, a normal human cell line, WS1 (skin fibroblasts) was also treated with the novel synthetic compounds.
(§2) Cell proliferation was quantified by the crystal violet method with a spectrophotometer. In short, after acquiring serial images (0, 24 and 48 hrs) with the EVOS XL Cell Imaging System microscope (Thermo Fisher Scientific), the cells imaged at 48 hrs were fixed with paraformaldehyde (4%) and stained with Crystal Violet (1%). Then, the specific absorbance (λ=590 nm) at 48 hrs was measured with a spectrophotometer (Infinite®200 PRO, Tecan). Data analysis was carried out by using ad-hoc Excel files for graphical representation and statistical processing (t-test). Moreover, the results obtained with Crystal Violet were confirmed by using another cell proliferation assessment method based on the real time cellular analyzer XCELLigence RTCA DP (ACEA Biosciences, Inc.). This tool allows cell growth to be monitored from electrical impedance-derived quantitative values (the so-called Cell Index) measured by tiny electrodes located at the base of the culture wells. Proliferation is monitored for several days (5-7) by setting a Cell Index per minute measure on the instrument. The data are analysed by processing various parameters calculated by the dedicated software, such as the cell duplication time, the slope and the Max Cell Index.
(§3) Cell proliferation was quantitated spectrophotometrically by the crystal violet method.

[2] = tested on: human melanoma cells (A375); conditions: for A375 cell growth vs vehicle control: 10 μM and 30 μM, FIG. 14; for pIC50: Homo sapiens, A-375, crystal violet, spectrophotometer, read-out: IC50 anti-proliferative effect, Melanoma (A375)
Procedure: as §1, §2, §3

[3] = tested on: human ovarian carcinoma cells (OVCAR-3); conditions: for OVCAR-3 cell growth vs vehicle control: 60 μM, FIG. 11a, 11b; for pIC50: Homo sapiens, OVCAR-3, crystal violet, spectrophotometer, read-out: IC50 anti-proliferative effect, OCC - (OVCAR)
Procedure: as §1, §2, §3

SMILES	pIC50 [1]	pIC50 [2]	pIC50 [3]	HCT116 cell growth vs vehicle control ([1]; 10 μM and 30 μM, FIG. 15)	A375 cell growth vs vehicle control [2]	OVCAR-3 cell growth vs vehicle control [3]	HCT116 cell growth vs vehicle control ([1]; 100 μM, FIG. 3a, 3b, 13a, 13b)	proliferation of melanoma cells (A375) vs vehicle control ([2]; concentration not given, FIG. 12 for Compound 26)
O=c1c(OCCOCCO)c(-c2ccc(O)c(O)c2)oc2cc(O)cc(O)c12 [Compound 26]	4.09	4.28					significantly inhibits	significantly inhibits
CCCCC/C=C\C/C=C\C/C=C\C/C=C\CCCC(=O)NCCOCCOc1c(-c2ccc(O)c(O)c2)oc2cc(O)cc(O)c2c1=O [Compound 29e]	5.36	5.23	4.79	significantly inhibited	significantly inhibited	significantly inhibit		
O=C(NCCOCCOc1c(-c2ccc(O)c(O)c2)oc2cc(O)cc(O)c2c1=O)c1cc(C(=O)NCCOCCOc2c(-c3ccc(O)c(O)c3)oc3cc(O)cc(O)c3c2=O)cc(-c2cc(C(=O)NCCOCCOc3c(-c4ccc(O)c(O)c4)oc4cc(O)cc(O)c4c3=O)cc(C(=O)NCCOCCOc3c(-c4ccc(O)c(O)c4)oc4cc(O)cc(O)c4c3=O)c2)c1 [Compound 25a]	3.52	< 3.00						

The next compounds have a higher pIC50 [1] than those just listed; values first:

pIC50 [1]	pIC50 [2]	pIC50 [3]	SMILES	HCT116 cell growth vs vehicle control ([1]; 10 μM and 30 μM, FIG. 15)	A375 cell growth vs vehicle control [2]	OVCAR-3 cell growth vs vehicle control [3]	HCT116 cell growth vs vehicle control ([1]; 100 μM, FIG. 3a, 3b, 13a, 13b)	proliferation of melanoma cells (A375) vs vehicle control ([2]; concentration not given, FIG. 12 for Compound 26)
5.89	5.40	5.13	O=C(NCCOCCOc1c(-c2ccc(O)c(O)c2)oc2cc(O)cc(O)c2c1=O)c1ccc(Oc2ccc(C(=O)NCCOCCOc3c(-c4ccc(O)c(O)c4)oc4cc(O)cc(O)c4c3=O)cc2)cc1 [Compound 19c]	significantly inhibited	significantly inhibited	significantly inhibit		
5.54	5.11		CCCCC/C=C\C/C=C\CCCCCCCC(=O)NCCOCCOc1c(-c2ccc(O)c(O)c2)oc2cc(O)cc(O)c2c1=O [Compound 29d]	significantly inhibited	significantly inhibited			
